# Key:
# [1] = molecular target: Diamine oxidase AOC1 (Rattus norvegicus); assay: Inhibition of rat liver DAO using putrescine as substrate after 1 hr by fluorometric assay
# [2] = molecular target: Diamine oxidase AOC1 (Homo sapiens); assay: Inhibition of human DAO expressed in CHO cells using putrescine as substrate after 1 hr by fluorometric assay
structure (smiles),measurement,setting,value
CC(=O)Nc1nc(CCc2ccc(N=C(N)N)cc2)cs1,IC50,[1],75 µM
same,IC50,[2],> 100 µM

# — BindingDB's records for doi:10.1016/j.bmc.2012.12.025 (Astellas Pharma, 2013)
